Test results taken from BigSolDB 2.1.

CC(C)C[C@H](N)C(=O)O
solubility (mole fraction)
Conditions	283.15 K	288.15 K	293.15 K	298.15 K	303.15 K	308.15 K	313.15 K	318.15 K	323.15 K	328.15 K
in 1,4-dioxane	–	3.61e-05	5.3e-05	7.25e-05	9.39e-05	0.000122	0.000149	0.00019	0.000238	0.000309
in acetone	3.16e-05	4.52e-05	6.31e-05	8.39e-05	0.00011	0.000145	0.000179	0.000218	0.000269	–
in acetonitrile	3.87e-05	4.44e-05	5.02e-05	5.71e-05	6.68e-05	7.59e-05	8.6e-05	0.000102	0.000123	–
in ethanol	0.000146	0.00015	0.000156	0.000171	0.00019	0.000206	0.000221	0.000286	0.00034	–
in ethyl acetate	0.000156	0.000169	0.000197	0.000222	0.00026	0.000303	0.000341	0.000396	0.000449	–
in isobutanol	0.000152	0.000157	0.000162	0.000175	0.000201	0.000228	0.000254	0.000304	0.00035	–
in isopropanol	0.000156	0.00016	0.000173	0.000187	0.000212	0.000254	0.000271	0.000318	0.000368	–
in methanol	0.000558	0.000588	0.000655	0.000686	0.000744	0.000817	0.000896	0.001	0.00118	–
in methyl acetate	0.000158	0.000162	0.000168	0.000178	0.000192	0.000211	0.000227	0.000254	0.000287	–
in n-butanol	2.59e-05	2.78e-05	4.16e-05	5.42e-05	7.83e-05	0.000103	0.000129	0.000171	0.000215	–
in n-propanol	9.7e-05	0.000107	0.000123	0.000142	0.000163	0.000187	0.000217	0.00026	0.000316	–
in water	0.00322	0.00326	0.00331	0.00339	0.00348	0.00358	0.00374	0.00385	0.00404	–
